Measured values as given in PMC3441526, “KCN1, a Novel Synthetic Sulfonamide Anticancer Agent: In Vitro and In Vivo Anti-Pancreatic Cancer Activities and Preclinical Pharmacology” (PLoS ONE, 2012).
Where two headings read alike, the source gives them in different places.

What was measured:
[1] = tested on: Mia Paca-2 xenograft tumors; assay: Subcutaneous xenograft tumor model; format: in vivo, nude mice (nu/nu); conditions: for decrease of tumor growth: 5 days/wk for 6 weeks
Method: The animal procedures were performed under approval by the Institutional Animal Use and Care Committee of Texas Tech University Health Sciences Center (IACUC # 10031, PHS Assurance # A 3056-01, USDA Registration # 74-R-0050, REF # 039436). Female athymic pathogen-free nude mice (nu/nu, 4–6 weeks) were purchased from Charles River Laboratories International Inc. (Wilmington, MA). To establish Panc-1 and Mia Paca-2 human pancreatic cancer xenograft tumors, cultured Panc-1 (5×10^6) and Mia Paca-2 (1×10^7) cells were harvested from monolayer cultures, washed twice with serum-free medium, re-suspended and injected subcutaneously (total volume 0.2 mL) into the left inguinal area of the mice. All animals were monitored for activity, physical condition, body weight, and tumor growth. Tumor size was determined every other day by caliper measurement of two perpendicular diameters of the implant. Tumor volume (in mm^3) was calculated by the formula, ½ (a × b ^2) where “a” is the long diameter and “b” is the short diameter, [47].
The animals bearing human cancer xenografts were randomly divided into various treatment groups and a control group (7–10 mice/group). The untreated control group received the vehicle only. For the Panc-1 and Mia Paca-2 xenograft models, KCN1 was dissolved in a 1∶1 solution of Cremophor EL (Sigma, St. Louis, MO): ethanol (200 Proof) by heating to 80–90°C in a water bath and vortexing, then diluted with an equal volume of phosphate-buffered saline, and was administered by intraperitoneal injection at doses of 30 and 60 mg/kg/d, 5d/wk for several weeks. Treatment was initiated once tumor volume reached ∼100 mm^3. The dosage regimen was decided based upon IC50 values obtained from in-vitro studies and adjustments for body surface and weight of the treated animal.

[2] = Pharmacokinetic study in mice; format: in vivo, nude mice (nu/nu); conditions: for dose recovered as parental KCN1 from urine: first 24 hr
Method: (§1) Female CD-1 and nude mice were administered 35 mg/kg body weight of KCN1 as either a single intravenous injection via a tail vein or via an intraperitoneal injection. At selected time points after dosing, groups of three mice/time point were subjected to a retro-orbital bleed. The blood was collected into heparinized tubes, and plasma was separated by centrifugation. Tissues (brain, skeletal muscle, kidneys, liver, spleen, and heart) were collected by necropsy. Urine and feces were collected on ice for 24 h from mice housed in metabolic cages (n = 3/study). The collection containers and cages were washed twice with 0.9% saline solution, and each urine collection and each wash was analyzed separately, then values were added together for each mouse to determine the total KCN1 present in urine during the collection period. Pharmacokinetic values were derived using Phoenix WinNonlin Version 6.0 (Mountain View, CA).
(§2) An HPLC protocol was developed to detect KCN1 in different matrices (plasma, urine or tissue homogenates) using an Agilent 1120 instrument. KCN1 was separated on a Zorbax SB-C18 (5 µm, 150 × 4.6 mm) analytical column with a Zorbax Reliance Cartridge Guard Column (SB-C18), and the eluate was monitored by UV at 254 nm. The mobile phase was composed of “A” (methanol +0.1% Et3N)-“B” (ddH2O+0.1% Et3N) (80∶20, v/v). Prior to application, the mobile phase was filtered and degassed using a Millipore glass filter system with a nylon membrane (0.2 µm). The peaks for KCN1 were used to establish standard curves and for quantitative analysis of samples. Quantification of the compound was achieved by determination of the peak area at the retention time of approximately 4.4 minutes.
(§3) Plasma (100 µL) was mixed with 200 µL of methanol, vortexed, and centrifuged to remove precipitated proteins. The supernatant was evaporated to dryness under a stream of air. The residue was dissolved in 100 µL of the mobile phase, and 10 µL was injected onto the HPLC system for analysis. Weighed tissues were homogenized in two to five volumes of PBS (based on the weight of the tissue samples), and portions of the homogenates were processed in the same manner as the plasma samples.

[3] = Pharmacokinetic study in mice; format: in vivo, CD-1 mice; conditions: for dose recovered as parental KCN1 from urine: first 24 hr
Method: as §1, §2, §3

[4] = nude mice, 35 mg/kg, either route
[5] = CD-1 mice, 35 mg/kg, either route

COc1ccc(S(=O)(=O)N(Cc2ccc3c(c2)C=CC(C)(C)O3)c2ccccc2)cc1OC [KCN1, 3,4-dimethoxy-N-[(2,2-dimethyl-2H-chromen-6-yl)methyl]-N-phenylbenzenesulfonamide]
decrease of tumor growth ([1]; 30 mg/kg i.p.): about 43%
decrease of tumor growth ([1]; 60 mg/kg i.p.): ~57%
body weight versus controls ([1]; 30 or 60 mg/kg i.p.): no significant differences in body weights
Tmax ([2]; female, nude (nu/nu), mouse, plasma, ip, nude mice, I.P. 35 mg/kg, read-out: time of maximum plasma level): 2 h
concentration at 6 h ([2]; female, nude (nu/nu), mouse, plasma, iv, nude mice, I.V. 35 mg/kg, 6 h after dosing): < 0.3 µg/mL
concentration at 5 min ([2]; female, nude (nu/nu), mouse, plasma, iv, nude mice, bolus I.V. 35 mg/kg, 5 minutes): 5.19 µg/mL
half-life ([2]; female, nude (nu/nu), mouse, Brain, Nu/nu, IP 35 mg/kg): 0.95 h
Tmax ([2]; female, nude (nu/nu), mouse, Brain, Nu/nu, IP 35 mg/kg, read-out: Tmax): 1 h
half-life ([2]; female, nude (nu/nu), mouse, Brain, Nu/nu, IV 35 mg/kg): 3.38 h
Tmax ([2]; female, nude (nu/nu), mouse, Brain, Nu/nu, IV 35 mg/kg, read-out: Tmax): 0.08 h
half-life ([2]; female, nude (nu/nu), mouse, Heart, Nu/nu, IP 35 mg/kg): 1.22 h
Tmax ([2]; female, nude (nu/nu), mouse, Heart, Nu/nu, IP 35 mg/kg, read-out: Tmax): 0.08 h
half-life ([2]; female, nude (nu/nu), mouse, Heart, Nu/nu, IV 35 mg/kg): 0.36 h
Tmax ([2]; female, nude (nu/nu), mouse, Heart, Nu/nu, IV 35 mg/kg, read-out: Tmax): 4 h
half-life ([2]; female, nude (nu/nu), mouse, Kidneys, Nu/nu, IP 35 mg/kg): 22.4 h
Tmax ([2]; female, nude (nu/nu), mouse, Kidneys, Nu/nu, IP 35 mg/kg, read-out: Tmax): 0.25 h
half-life ([2]; female, nude (nu/nu), mouse, Kidneys, Nu/nu, IV 35 mg/kg): 1.8 h
Tmax ([2]; female, nude (nu/nu), mouse, Kidneys, Nu/nu, IV 35 mg/kg, read-out: Tmax): 0.08 h
half-life ([2]; female, nude (nu/nu), mouse, Liver, Nu/nu, IP 35 mg/kg): 2.52 h
Tmax ([2]; female, nude (nu/nu), mouse, Liver, Nu/nu, IP 35 mg/kg, read-out: Tmax): 0.5 h
half-life ([2]; female, nude (nu/nu), mouse, Liver, Nu/nu, IV 35 mg/kg): 3.39 h
Tmax ([2]; female, nude (nu/nu), mouse, Liver, Nu/nu, IV 35 mg/kg, read-out: Tmax): 2 h
half-life ([2]; female, nude (nu/nu), mouse, Lungs, Nu/nu, IP 35 mg/kg): 1.04 h
Tmax ([2]; female, nude (nu/nu), mouse, Lungs, Nu/nu, IP 35 mg/kg, read-out: Tmax): 1 h
half-life ([2]; female, nude (nu/nu), mouse, Lungs, Nu/nu, IV 35 mg/kg): 2 h
Tmax ([2]; female, nude (nu/nu), mouse, Lungs, Nu/nu, IV 35 mg/kg, read-out: Tmax): 0.25 h
half-life ([2]; female, nude (nu/nu), mouse, Muscle, Nu/nu, IP 35 mg/kg): 2.97 h
Tmax ([2]; female, nude (nu/nu), mouse, Muscle, Nu/nu, IP 35 mg/kg, read-out: Tmax): 0.25 h
half-life ([2]; female, nude (nu/nu), mouse, Muscle, Nu/nu, IV 35 mg/kg): 2.28 h
Tmax ([2]; female, nude (nu/nu), mouse, Muscle, Nu/nu, IV 35 mg/kg, read-out: Tmax): 0.08 h
half-life ([2]; female, nude (nu/nu), mouse, Plasma, Nu/nu, IP 35 mg/kg): 2.65 h
half-life ([2]; female, nude (nu/nu), mouse, Plasma, Nu/nu, IV 35 mg/kg): 0.6 h
half-life ([2]; female, nude (nu/nu), mouse, Spleen, Nu/nu, IP 35 mg/kg): 0.81 h
Tmax ([2]; female, nude (nu/nu), mouse, Spleen, Nu/nu, IP 35 mg/kg, read-out: Tmax): 24 h
half-life ([2]; female, nude (nu/nu), mouse, Spleen, Nu/nu, IV 35 mg/kg): 1.4 h
Tmax ([2]; female, nude (nu/nu), mouse, Spleen, Nu/nu, IV 35 mg/kg, read-out: Tmax): 2 h
dose recovered as parental KCN1 from urine ([2]; nude mice, 35 mg/kg I.P.): less than 0.5%
dose recovered as parental KCN1 from urine ([2]; nude mice, 35 mg/kg intravenously): less than 1%
detection in brain [2, 4]: could not be detected after 6 h
time detectable in heart, lungs, liver, spleen, kidneys and skeletal muscle [2, 4]: at least 24 h
time plasma concentration still detectable ([2]; nude mice, I.P. 35 mg/kg): ≥ 24 h
time plasma concentration still detectable ([2]; nude mice, I.V. 35 mg/kg): at least 6 h
dose recovered as parental KCN1 from urine ([3]; CD-1 mice, 35 mg/kg I.P.): less than 0.5%
dose recovered as parental KCN1 from urine ([3]; CD-1 mice, 35 mg/kg intravenously): less than 1%
detection in brain [3, 5]: could not be detected after 6 h
time detectable in heart, lungs, liver, spleen, kidneys and skeletal muscle [3, 5]: at least 24 h
time plasma concentration still detectable ([3]; CD-1 mice, I.P. 35 mg/kg): ≥ 24 h
time plasma concentration still detectable ([3]; CD-1 mice, I.V. 35 mg/kg): at least 6 h
Tmax ([3]; female, mouse, plasma, ip, CD-1 mice, I.P. 35 mg/kg, read-out: time of maximum plasma level (converted)): 0.5 h
concentration at 6 h ([3]; female, mouse, plasma, iv, CD-1 mice, I.V. 35 mg/kg, 6 h after dosing): < 0.3 µg/mL
concentration at 5 min ([3]; female, mouse, plasma, iv, CD-1 mice, bolus I.V. 35 mg/kg, 5 minutes): 9.98 µg/mL
half-life ([3]; female, mouse, Brain, CD-1, IP 35 mg/kg): 3.13 h
Tmax ([3]; female, mouse, Brain, CD-1, IP 35 mg/kg, read-out: Tmax): 1 h
half-life ([3]; female, mouse, Brain, CD-1, IV 35 mg/kg): 0.53 h
Tmax ([3]; female, mouse, Brain, CD-1, IV 35 mg/kg, read-out: Tmax): 0.08 h
half-life ([3]; female, mouse, Heart, CD-1, IP 35 mg/kg): 2.19 h
Tmax ([3]; female, mouse, Heart, CD-1, IP 35 mg/kg, read-out: Tmax): 0.17 h
half-life ([3]; female, mouse, Heart, CD-1, IV 35 mg/kg): 22.1 h
Tmax ([3]; female, mouse, Heart, CD-1, IV 35 mg/kg, read-out: Tmax): 0.08 h
half-life ([3]; female, mouse, Kidneys, CD-1, IP 35 mg/kg): 2.5 h
Tmax ([3]; female, mouse, Kidneys, CD-1, IP 35 mg/kg, read-out: Tmax): 0.08 h
half-life ([3]; female, mouse, Kidneys, CD-1, IV 35 mg/kg): 18.8 h
Tmax ([3]; female, mouse, Kidneys, CD-1, IV 35 mg/kg, read-out: Tmax): 0.08 h
half-life ([3]; female, mouse, Liver, CD-1, IP 35 mg/kg): 3.5 h
Tmax ([3]; female, mouse, Liver, CD-1, IP 35 mg/kg, read-out: Tmax): 4 h
half-life ([3]; female, mouse, Liver, CD-1, IV 35 mg/kg): 1.15 h
Tmax ([3]; female, mouse, Liver, CD-1, IV 35 mg/kg, read-out: Tmax): 0.08 h
half-life ([3]; female, mouse, Lungs, CD-1, IP 35 mg/kg): 2.27 h
Tmax ([3]; female, mouse, Lungs, CD-1, IP 35 mg/kg, read-out: Tmax): 0.25 h
half-life ([3]; female, mouse, Lungs, CD-1, IV 35 mg/kg): 23.3 h
Tmax ([3]; female, mouse, Lungs, CD-1, IV 35 mg/kg, read-out: Tmax): 2 h
half-life ([3]; female, mouse, Muscle, CD-1, IP 35 mg/kg): 1.86 h
Tmax ([3]; female, mouse, Muscle, CD-1, IP 35 mg/kg, read-out: Tmax): 0.17 h
half-life ([3]; female, mouse, Muscle, CD-1, IV 35 mg/kg): 1.52 h
Tmax ([3]; female, mouse, Muscle, CD-1, IV 35 mg/kg, read-out: Tmax): 0.08 h
half-life ([3]; female, mouse, Plasma, CD-1, IP 35 mg/kg): 7.35 h
half-life ([3]; female, mouse, Plasma, CD-1, IV 35 mg/kg): 0.16 h
half-life ([3]; female, mouse, Spleen, CD-1, IP 35 mg/kg): 2.35 h
Tmax ([3]; female, mouse, Spleen, CD-1, IP 35 mg/kg, read-out: Tmax): 2 h
half-life ([3]; female, mouse, Spleen, CD-1, IV 35 mg/kg): 0.46 h
Tmax ([3]; female, mouse, Spleen, CD-1, IV 35 mg/kg, read-out: Tmax): 0.08 h
